Data from ChEMBL document CHEMBL5465560, “Selectivity Literature for EUbOPEN Chemogenomic Library” (2024).
One block for each compound: values may come before it.

Assays:
[1] = target: Mitogen-activated protein kinase kinase kinase 10 (Homo sapiens) (UniProt Q02779); test: Selectivity interaction (LanthaScreen Eu Kinase Binding Assay) EUB0001632a MAP3K10; conditions: at 10 µM
[2] = target: Mitogen-activated protein kinase kinase kinase kinase 5 (Homo sapiens) (UniProt Q9Y4K4); test: Selectivity interaction (ActivX KiNativ screen (kinase selectivity in THP-1 cell lysates)) EUB0000639a MAP4K5; type: subcellular; conditions: lysate
Sequence of Mitogen-activated protein kinase kinase kinase kinase 5 (Homo sapiens) (Q9Y4K4 whole entry, looked up): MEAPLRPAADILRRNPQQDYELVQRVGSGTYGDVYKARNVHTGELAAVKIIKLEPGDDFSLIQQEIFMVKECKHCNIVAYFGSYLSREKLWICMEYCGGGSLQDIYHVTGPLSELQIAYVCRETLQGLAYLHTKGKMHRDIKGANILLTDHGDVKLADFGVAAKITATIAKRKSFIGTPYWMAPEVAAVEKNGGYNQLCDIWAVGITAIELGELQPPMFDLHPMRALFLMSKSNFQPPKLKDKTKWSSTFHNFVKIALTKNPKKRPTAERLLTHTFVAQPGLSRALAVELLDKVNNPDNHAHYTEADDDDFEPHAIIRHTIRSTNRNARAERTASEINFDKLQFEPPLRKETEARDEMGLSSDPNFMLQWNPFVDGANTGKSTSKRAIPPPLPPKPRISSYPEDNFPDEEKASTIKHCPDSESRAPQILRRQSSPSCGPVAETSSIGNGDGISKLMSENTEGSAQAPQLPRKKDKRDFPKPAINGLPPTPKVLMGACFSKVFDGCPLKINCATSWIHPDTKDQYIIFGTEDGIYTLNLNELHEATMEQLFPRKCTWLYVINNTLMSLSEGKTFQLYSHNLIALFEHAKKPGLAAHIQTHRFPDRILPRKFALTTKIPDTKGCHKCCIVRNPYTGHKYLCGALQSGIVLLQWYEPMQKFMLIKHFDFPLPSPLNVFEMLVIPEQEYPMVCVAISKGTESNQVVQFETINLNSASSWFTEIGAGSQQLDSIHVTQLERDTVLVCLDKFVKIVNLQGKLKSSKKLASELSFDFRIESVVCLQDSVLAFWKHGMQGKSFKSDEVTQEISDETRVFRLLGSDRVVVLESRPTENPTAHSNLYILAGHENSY

[3] = target: T1, Dual specificity mitogen-activated protein kinase kinase 6 (Homo sapiens) (UniProt P52564); test: Selectivity interaction (Kinase panel (Invitrogen)) EUB0000639a MAP2K6; conditions: at 200 nM
T1 sequence (whole entry): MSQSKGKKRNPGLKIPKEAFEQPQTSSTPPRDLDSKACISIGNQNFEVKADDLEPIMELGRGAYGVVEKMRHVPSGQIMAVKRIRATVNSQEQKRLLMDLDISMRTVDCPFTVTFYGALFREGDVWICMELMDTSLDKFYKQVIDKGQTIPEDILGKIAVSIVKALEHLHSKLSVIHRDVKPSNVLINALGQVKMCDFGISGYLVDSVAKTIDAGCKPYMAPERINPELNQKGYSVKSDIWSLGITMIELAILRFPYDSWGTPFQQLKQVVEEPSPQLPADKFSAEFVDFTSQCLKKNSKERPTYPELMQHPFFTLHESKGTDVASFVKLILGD

[4] = target: T2, Interleukin-1 receptor-associated kinase 4 (Homo sapiens) (UniProt Q9NWZ3); test: Selectivity interaction (Kinase panel (KiNativ target engagement assay in Jurkat cells)) EUB0001635a IRAK4; type: cell-based; conditions: Selectivity number of off-targets 0.0, Selectivity number of targets 233.0, Source Knowledge https://www.sciencedirect.com/science/article/pii/S2451945619300674?via%3Dihub, at 1 µM
T2 sequence (whole entry): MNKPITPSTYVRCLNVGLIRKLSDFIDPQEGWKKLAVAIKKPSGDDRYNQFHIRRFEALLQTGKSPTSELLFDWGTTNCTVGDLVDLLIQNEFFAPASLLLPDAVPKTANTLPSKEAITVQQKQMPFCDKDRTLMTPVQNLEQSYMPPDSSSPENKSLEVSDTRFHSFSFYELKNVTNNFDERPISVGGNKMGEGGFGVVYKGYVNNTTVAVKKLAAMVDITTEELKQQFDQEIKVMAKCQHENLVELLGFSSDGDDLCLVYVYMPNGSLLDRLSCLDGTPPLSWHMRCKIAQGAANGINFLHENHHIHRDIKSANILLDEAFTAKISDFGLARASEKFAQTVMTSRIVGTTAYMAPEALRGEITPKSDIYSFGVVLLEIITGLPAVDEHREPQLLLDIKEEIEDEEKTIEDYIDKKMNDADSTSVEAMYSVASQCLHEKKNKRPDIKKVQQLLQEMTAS

[5] = target: cAMP-dependent protein kinase catalytic subunit beta (Homo sapiens) (UniProt P22694); test: Selectivity interaction (KinomeScan (DiscoverX)) EUB0001619a PRKACB; conditions: at 1 µM
[6] = target: T3, Inhibitor of nuclear factor kappa-B kinase subunit beta (Homo sapiens) (UniProt O14920); test: Selectivity interaction (ActivX KiNativ screen (ex vivo kinase selectivity in human PBMCs)) EUB0001619a IKBKB; type: cell-based; conditions: PBMC, at 1 µM
T3 sequence (whole entry): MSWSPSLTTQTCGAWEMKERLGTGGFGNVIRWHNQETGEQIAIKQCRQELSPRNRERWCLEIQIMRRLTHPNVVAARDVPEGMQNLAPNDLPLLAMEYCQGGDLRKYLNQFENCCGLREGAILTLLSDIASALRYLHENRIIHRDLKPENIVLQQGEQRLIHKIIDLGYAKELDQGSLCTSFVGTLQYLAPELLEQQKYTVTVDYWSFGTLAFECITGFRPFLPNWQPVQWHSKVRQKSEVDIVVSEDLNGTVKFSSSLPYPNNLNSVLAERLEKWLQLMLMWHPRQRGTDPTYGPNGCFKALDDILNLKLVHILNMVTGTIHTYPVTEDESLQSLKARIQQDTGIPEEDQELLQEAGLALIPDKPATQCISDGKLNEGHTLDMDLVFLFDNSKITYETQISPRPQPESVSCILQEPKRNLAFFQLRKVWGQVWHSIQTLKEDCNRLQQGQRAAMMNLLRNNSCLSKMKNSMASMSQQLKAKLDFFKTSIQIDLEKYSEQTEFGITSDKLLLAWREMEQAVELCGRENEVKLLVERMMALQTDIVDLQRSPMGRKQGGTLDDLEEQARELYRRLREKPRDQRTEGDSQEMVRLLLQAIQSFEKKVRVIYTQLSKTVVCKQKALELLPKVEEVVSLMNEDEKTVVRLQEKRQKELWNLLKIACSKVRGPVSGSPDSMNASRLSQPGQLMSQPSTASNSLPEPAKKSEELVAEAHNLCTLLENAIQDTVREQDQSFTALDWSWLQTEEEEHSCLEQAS

[7] = target: T4, PAN2-PAN3 deadenylation complex subunit PAN3 (Homo sapiens) (UniProt Q58A45); test: Selectivity interaction (ActivX KiNativ screen (ex vivo kinase selectivity in human PBMCs)) EUB0001619a PAN3; type: cell-based; conditions: PBMC, at 1 µM
T4 sequence (whole entry): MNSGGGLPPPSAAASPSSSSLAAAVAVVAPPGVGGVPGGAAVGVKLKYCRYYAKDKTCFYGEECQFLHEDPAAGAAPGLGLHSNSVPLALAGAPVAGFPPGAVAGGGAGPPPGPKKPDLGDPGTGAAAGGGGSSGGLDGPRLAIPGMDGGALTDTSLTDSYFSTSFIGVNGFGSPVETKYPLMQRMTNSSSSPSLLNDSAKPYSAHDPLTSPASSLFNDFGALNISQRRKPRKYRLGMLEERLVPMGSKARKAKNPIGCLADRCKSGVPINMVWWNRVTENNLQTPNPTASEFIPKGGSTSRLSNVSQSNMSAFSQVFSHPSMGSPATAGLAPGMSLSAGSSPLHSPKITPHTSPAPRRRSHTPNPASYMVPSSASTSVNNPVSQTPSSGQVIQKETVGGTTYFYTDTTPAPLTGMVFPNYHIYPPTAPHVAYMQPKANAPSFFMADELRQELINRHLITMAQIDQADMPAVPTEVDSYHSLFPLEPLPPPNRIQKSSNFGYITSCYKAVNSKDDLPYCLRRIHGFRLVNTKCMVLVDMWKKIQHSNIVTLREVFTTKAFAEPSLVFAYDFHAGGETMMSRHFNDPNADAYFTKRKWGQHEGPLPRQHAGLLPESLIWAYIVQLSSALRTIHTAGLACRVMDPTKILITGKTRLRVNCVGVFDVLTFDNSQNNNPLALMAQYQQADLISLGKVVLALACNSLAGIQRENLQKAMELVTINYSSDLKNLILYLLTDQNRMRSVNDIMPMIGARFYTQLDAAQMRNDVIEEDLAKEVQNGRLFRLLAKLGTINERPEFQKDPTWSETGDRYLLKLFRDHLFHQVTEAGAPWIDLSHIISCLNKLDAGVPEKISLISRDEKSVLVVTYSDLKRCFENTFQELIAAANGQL

Sequence of Mitogen-activated protein kinase kinase kinase 10 (Homo sapiens) (Q02779 whole entry, looked up): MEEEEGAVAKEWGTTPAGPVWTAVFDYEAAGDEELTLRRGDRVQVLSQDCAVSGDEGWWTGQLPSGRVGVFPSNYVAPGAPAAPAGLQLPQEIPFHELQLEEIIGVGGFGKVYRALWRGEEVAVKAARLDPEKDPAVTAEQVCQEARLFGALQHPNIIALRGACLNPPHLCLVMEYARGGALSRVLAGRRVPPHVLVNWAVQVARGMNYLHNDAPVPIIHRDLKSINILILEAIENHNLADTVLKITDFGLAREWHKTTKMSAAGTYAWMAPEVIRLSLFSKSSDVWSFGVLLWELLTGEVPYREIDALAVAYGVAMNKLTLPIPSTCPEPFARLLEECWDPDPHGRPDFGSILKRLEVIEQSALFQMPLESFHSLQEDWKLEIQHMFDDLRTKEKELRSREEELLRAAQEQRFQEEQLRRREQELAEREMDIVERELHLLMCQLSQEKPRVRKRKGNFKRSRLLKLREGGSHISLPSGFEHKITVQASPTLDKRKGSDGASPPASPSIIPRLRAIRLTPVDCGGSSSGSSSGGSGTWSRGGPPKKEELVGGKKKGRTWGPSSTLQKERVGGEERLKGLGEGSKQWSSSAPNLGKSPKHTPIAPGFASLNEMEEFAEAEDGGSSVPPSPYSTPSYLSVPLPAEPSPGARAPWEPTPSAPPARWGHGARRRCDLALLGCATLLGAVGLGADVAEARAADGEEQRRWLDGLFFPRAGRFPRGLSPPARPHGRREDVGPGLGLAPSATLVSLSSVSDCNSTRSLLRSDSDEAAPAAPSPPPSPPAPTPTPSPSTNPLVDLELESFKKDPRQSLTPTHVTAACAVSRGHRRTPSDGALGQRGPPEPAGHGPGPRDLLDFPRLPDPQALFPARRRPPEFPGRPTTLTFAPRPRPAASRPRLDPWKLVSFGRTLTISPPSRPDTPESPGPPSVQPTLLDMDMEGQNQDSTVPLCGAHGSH

- % of inhibition [1]: -1.64%
Compound: Cn1cc(-n2cnc3c(NCc4nc5cc(Cl)c(Cl)cc5[nH]4)nc(N4CCOCC4)nc32)cn1

- % of inhibition ([2]; at 0.01 µM): -0.9%
- % of inhibition ([2]; at 0.04 µM): 0%
- % of inhibition ([2]; at 0.2 µM): 3.2%
- % of inhibition ([2]; at 1 µM): 9.9%
- % of inhibition ([2]; at 5 µM): 11.8%
- % of inhibition [3]: 1.6%
Compound: CC[C@@H]1[C@H](F)C(=O)N[C@@H]1COc1nccc2cc(C(N)=O)c(OC)cc12 [ZIMLOVISERTIB]

Compound: C=CC(=O)Nc1ccc(C(=O)Nc2[nH]nc3c2CN(C(=O)N[C@H](CN(C)C)c2ccccc2)C3(C)C)cc1
- % of engagement [4]: 0.4%

Compound: N#Cc1cccc(-c2c[nH]c3ncnc(N4CCOCC4)c23)c1
- % of control [5]: 84%
- % of inhibition [6]: -16%
- % of inhibition [7]: 15%
